From ChEMBL document CHEMBL1128090, “Substituted 2,4-diaminoquinazolines and 2,4-diamino-8-alkylpurines as antagonists of the neurokinin-2 (NK2) receptor” (Bioorg Med Chem Lett, 1995) come the findings set out here.

The target in experiment [1] is T1, Substance-K receptor (Mesocricetus auratus, UniProt P51144).
T1 sequence (P51144 whole entry): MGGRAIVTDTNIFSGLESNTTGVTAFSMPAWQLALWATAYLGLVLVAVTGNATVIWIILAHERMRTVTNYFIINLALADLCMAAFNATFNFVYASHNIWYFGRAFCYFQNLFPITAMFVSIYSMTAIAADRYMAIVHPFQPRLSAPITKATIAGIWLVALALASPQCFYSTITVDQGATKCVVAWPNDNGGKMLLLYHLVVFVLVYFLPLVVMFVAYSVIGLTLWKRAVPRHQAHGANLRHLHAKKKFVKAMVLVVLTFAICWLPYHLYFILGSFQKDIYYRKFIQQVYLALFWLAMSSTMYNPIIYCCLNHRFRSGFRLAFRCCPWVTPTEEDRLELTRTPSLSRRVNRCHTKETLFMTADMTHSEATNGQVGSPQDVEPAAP
Briefly: Inhibition constant for displacement of [3H]NKA from Tachykinin receptor 2 found in hamster urinary bladder membrane (HUBM). The format is cell membranes. (In general: In a radioligand displacement assay an active substance lowers the binding of a labelled ligand.)

The species named for experiment [2] is Cavia porcellus. Briefly: Compound was tested for the inhibition of contraction induced by [b-Ala8-NKA(4-10)] in guinea pig trachea. The format is functional.
The target in experiment [3] is T2, Substance-K receptor (Homo sapiens, UniProt P21452).
T2 sequence (P21452 whole entry): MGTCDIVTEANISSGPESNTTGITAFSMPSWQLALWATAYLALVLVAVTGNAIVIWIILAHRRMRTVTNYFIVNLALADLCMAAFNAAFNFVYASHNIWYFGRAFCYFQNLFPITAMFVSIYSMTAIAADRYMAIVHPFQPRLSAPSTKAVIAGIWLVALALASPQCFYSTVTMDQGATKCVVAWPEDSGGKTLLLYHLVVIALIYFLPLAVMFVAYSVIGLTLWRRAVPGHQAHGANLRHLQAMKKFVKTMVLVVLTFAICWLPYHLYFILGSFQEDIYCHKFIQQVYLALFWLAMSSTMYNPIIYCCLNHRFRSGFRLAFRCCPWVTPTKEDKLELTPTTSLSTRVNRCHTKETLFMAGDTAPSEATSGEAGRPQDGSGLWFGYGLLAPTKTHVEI
Briefly: Displacement of [3H]NKA from the cloned human Tachykinin receptor 2 which has been expressed in baculovirus infected insect sf21 cells.

Experiment [4] has as its target T2, Substance-K receptor. Briefly: Inhibition constant for displacement of [3H]NKA from the cloned human NK2 receptor.
The target in experiment [5] is T2, Substance-K receptor. Briefly: Inhibition constant for displacement of [3H]-NKA from the cloned human NK2 receptor which has been expressed in baculovirus infected insect sf21 cells.

Regarding `Clc1ccc(Nc2nc(N3CCOCC3)nc3ccccc23)cc1`, the affinity in experiment [1], expressed as Ki, was 29.5 µM. On to `CC(C)c1nc2nc(N3CCC(C)(O)CC3)nc(Nc3ccc(Cl)cc3)c2[nH]1`, for which, in experiment [2], the Kb amounted to 10.7 µM. For the same molecule, the Ki in experiment [3] was determined as 2.1 µM. Regarding `CCCc1nc2nc(N3CCOCC3)nc(Nc3ccc(Cl)cc3)c2[nH]1`, the Ki in experiment [1] came out at 0.054 µM; in experiment [4], 2.34 µM. Molecule `CC(C)c1nc2[nH]c(NCc3ccccc3)nc(Nc3ccc(Cl)cc3)c-2n1` returned a Ki in experiment [3] of 5.58 µM. Take `CC(C)c1nc2[nH]c(NCCCN)nc(Nc3ccc(Cl)cc3)c-2n1`: the Ki in experiment [3] was found to be 2.55 µM.

In the case of `Cc1nc2[nH]c(N3CCOCC3)nc(Nc3ccc(Cl)cc3)c-2n1`, the Ki is 6.6 µM in experiment [1] and 17.5 µM in experiment [4].

Take `CC(C)c1nc2[nH]c(N3CCC4(CC3)OCCO4)nc(Nc3ccc(Cl)cc3)c-2n1`: the affinity in experiment [3], expressed as Ki, was 4.36 µM. That is a single-digit micromolar value.

With `CC(C)c1nc2nc(N3CCOCC3)nc(Nc3ccc(C(F)(F)F)cc3)c2[nH]1`, the Kb in experiment [2] is more than 100 µM. Moreover, in experiment [3], the Ki amounted to 2.85 µM.

In experiment [2], `CC(C)c1nc2nc(N3CCC(O)CC3)nc(Nc3ccc(C(F)(F)F)cc3)c2[nH]1` returned a Kb of more than 100 µM. In experiment [3], this molecule displayed a Ki of 1.77 µM. On to `CCCNc1nc(Nc2ccc(Cl)cc2)c2[nH]c(C(C)C)nc2n1`, for which the affinity in experiment [3], expressed as Ki, was 3.49 µM. In turn, `O=C(O)c1ccc2c(Nc3ccc(Cl)cc3)nc(N3CCOCC3)nc2c1` yielded a Ki in experiment [1] of 20.3 µM.

In experiment [1], `COC(=O)c1ccc2c(Nc3ccc(Cl)cc3)nc(N3CCOCC3)nc2c1` displayed a Ki of 0.82 µM.

Regarding `CC(C)c1nc2[nH]c(N3CCC(=O)CC3)nc(Nc3ccc(Cl)cc3)c-2n1`, the Ki in experiment [3] amounted to 5.89 µM. Regarding `CCc1nc2nc(N3CCOCC3)nc(Nc3ccc(Cl)cc3)c2[nH]1`, the Ki amounted to 0.52 µM in experiment [1] and 6.94 µM in experiment [4].

In the case of `CC(C)NC(=O)c1ccc2c(Nc3ccc(Cl)cc3)nc(N3CCOCC3)nc2c1`, in experiment [1], the Ki was 58.7 µM. In other words, the double-digit micromolar range.

`CC(C)N1Cc2c(Nc3ccc(Cl)cc3)nc(N3CCOCC3)nc2C1=O`: the Ki in experiment [1] was 0.015 µM; in experiment [4], 0.55 µM. `COC1(OC)CCN(c2nc(Nc3ccc(Cl)cc3)c3[nH]c(C(C)C)nc3n2)CC1` came in with a Ki in experiment [3] of 3.44 µM. As to `CC(C)c1nc2[nH]c(N3CCOCC3)nc(Nc3ccc(Cl)cc3)c-2n1`, the Ki stood at 0.067 µM in experiment [1] and 3.07 µM in experiment [5]. Further, in experiment [2], the Kb worked out at 70.8 µM. In experiment [2], `CC(C)c1nc2nc(N3CCC(O)(c4ccccc4)CC3)nc(Nc3ccc(Cl)cc3)c2[nH]1` showed a Kb of 100 µM. This molecule registered an inhibition constant Ki in experiment [3] of 2.24 µM.

In general, Ki refers to the dissociation constant of the complex between target and ligand, obtained from inhibition or displacement.
